Results: patent US20110218210A1, “COMPOUNDS FOR TREATING ABNORMAL CELLULAR PROLIFERATION” (priority 2007, published 2011)
Read-outs that look alike come from different tables or passages of the source.

How the values were obtained:
[1] = system: leukemic stem cell clone ABM42 C31; test: MTS viability assay, murine leukemic stem cell line; type: cell-based; settings: serial two-fold dilutions starting from 10 μM, 24 h, FIG. 1
Protocol: (§1) Leukemic stem cell lines and normal hematopoetic stem cell lines are separately maintained in cultures as described above. For viability assays, the cell lines are passed 24-36 hours prior to use in the assay, in order to test for sensitivity to specific drugs with cells in log-phase growth. Cells are plated in 96-well flat bottom plates (Greiner, Switzerland), at a concentration of 10^4 cells for the leukemic stem cell lines and normal hematopoietic stem cell lines, or 10^5 for the primary human fetal cord blood cells. Cells are plated in a final volume of 200 μl containing RPMI-1640 growth medium, supplemented as described above. Cells are either plated in medium alone, or medium containing a drug of interest. All drugs are tested in 11 different concentrations in order to derive sensitivity curves. The individual conditions were set up in triplicate wells, and at least three independent assays are performed to validate a specific observation.
(§2) The cells are cultured with the specific drug concentration for 24 hours at 37° C. in a 5% CO2 atmosphere. After culturing the cells under the experimental conditions for 23 hours, the wells are supplemented with 10 μl of the CellTiter 96 Aqueous Non-radioactive Cell Proliferation MTS reagent (Promega, Madison Wis.), and incubated in a 37° C. incubator (5% CO2) for 60 minutes. All plates are analyzed using a plate reader (Molecular Devices) using a filter set for O.D. 405. All values are used to derive standard errors, and compared among the different independent assays.
(§3) These compounds are screened for the ability to inhibit leukemic stem cell viability but not affect normal hematopoietic stem cells by incubating the compounds with cells using serial two-fold dilutions starting from 10 μM stocks.

[2] = mouse, in vivo
[3] = system: ABM 42 C31 leukemic stem cells; test: Therapeutic trial: survival of mice transplanted with leukemic stem cells (pre-clinical model of AML); type: in vivo; settings: 7 daily injections of 250 ul of 10 uM solution, intravenously, from clinical signs (about 15 d post-transplant); FIG. 5
Description: Groups of 3-5 mice are utilized for each of the experimental protocols. Transplantation of tumors is done by injecting 10^3 cells intravenously into cohorts of sub-lethally irradiated (450R)C57/BL6/Rag −/− mice ranging in age from 4-6 weeks. The mice are monitored daily for clinical signs of disease. These clinical signs included externally evident splenomegaly, a hunched posture and reduce mobility, labored breathing, dehydration, scruffy fur and an ascending paralysis in a minority of cases. […] The mice then receive daily injections of the indicated agents for 7 days. Mice are held indefinitely to ascertain rates of survival.
Into cohorts of sublethally irradiated mice are transplanted 10^3 ABM 42 C31 leukemic stem cells. Treatment of the mice when they develop clinical signs of disease (hunched posture, rapid breathing, scruffled fur at approximately 15d post-transplant). Mice receive 7 daily injections of 250 ul XPBS solutions containing 10 uM concentrations of 4-Amino-7-[(2R,3S,4S,5R)-3,4-dihydroxy-5-(hydroxymethyl)oxolan-2-yl]-6-hydrazinylpyrrolo[5,4-d]pyrimidine-5-carboxamide, 2-[(2-chloro-4-nitrophenanthridin-6-yl)amino]ethanol, and 5-(anthracen-1-ylmethylidene)-2-sulfanylidene-1,3diazinane-4,6-dione. After the 7th day the mice are monitored for survival. FIG. 5 illustrates that administration of the compounds delay mortality in a pre-clinical model of AML disease.

leukemic stem cells [4] = test: Flow cytometric analysis of apoptosis induction (7AAD); type: cell-based; settings: 10 μM; 24 h; versus normal murine hematopoietic stem cell lines; FIG. 2
Protocol: For analysis of apoptosis in leukemic stem cells or in normal hematopoietic stem cell lines, cells are cultured (in triplicate) with the specific drug concentration for 24 hours at 37° C. in a 5% CO2 atmosphere. Cell suspensions obtained from cultured cells are washed twice in FACS buffer, incubated for 20 minutes with 4 μM 7-aminoactinomycin-D (7AAD, Calbiochem), and washed with FACS buffer. Stained cells are resuspended in PBS and analyzed immediately on a flow cytometer.
4-Amino-7-[(2R,3S,4S,5R)-3,4-dihydroxy-5-(hydroxymethyl)oxolan-2-yl]-6-hydrazinylpyrrolo[5,4-d]pyrimidine-5-carboxamide, 2-[(2-chloro-4-nitrophenanthridin-6-yl)amino]ethanol, and 5-(anthracen-1-ylmethylidene)-2-sulfanylidene-1,3diazinane-4,6-dione preferentially kill murine leukemic stem cell viability vs. normal murine hematopoietic stem cell line. These compounds are screened to determine whether the effect of the compounds on reduced viability was due to inhibiting proliferation, or direct killing through apoptosis. The cells are analyzed by flow cytometric analysis for the exclusion of 7-aminoactinomycin-D (7AAD). At a concentration of 10 μM, cells are incubated in a 5% CO2 atmosphere for 24 h. After two washes in 1×PBS the cells are incubated with 4 μM 7-aminoactinomycin-D (7AAD) for 20 min.

[5] = type: in vivo; settings: immune deficient mice reconstituted with murine hematopoetic stem cell lines; 7 daily injections of 1 mM concentrations
Protocol: Immune deficient mice that are reconstituted with the murine hematopoetic stem cell lines are injected with 10,000× the effective in vitro concentration of a drug. Briefly, mice are given 7 daily injections of 1 mM concentrations of one of 4-Amino-7-[(2R,3S,4S,5R)-3,4-dihydroxy-5-(hydroxymethyl)oxolan-2-yl]-6-hydrazinylpyrrolo[5,4-d]pyrimidine-5-carboxamide, 2-[(2-chloro-4-nitrophenanthridin-6-yl)amino]ethanol, and 5-(anthracen-1-ylmethylidene)-2-sulfanylidene-1,3diazinane-4,6-dione. After the 7th day the mice are monitored for overt side-effects and survival.

[6] = system: normal murine hematopoietic stem cell line "BL/6 BM"; test: MTS viability assay, normal murine hematopoietic stem cell line; type: cell-based; settings: serial two-fold dilutions starting from 10 μM, 24 h, FIG. 1
Protocol: as §1, §2, §3

[7] = system: leukemic cell line (U937); test: MTS viability assay, human leukemic cell line; type: cell-based; settings: serial two-fold dilutions beginning with 10 μM, 24 h, FIG. 3
Protocol: as §1, §2
These compounds are incubated with cells using serial two-fold dilutions beginning with 10 μM.

[8] = Bone marrow toxicity in mice (FIG. 17); settings: compared to mice treated with methotrexate (MTX)
[9] = system: primary unmanipulated fetal cord blood cells; test: MTS viability assay, primary fetal cord blood cells; type: cell-based, human; settings: at the drug concentrations tested (two-fold dilutions from 10 μM), 24 h, FIG. 4
Protocol: as §1
The cells are cultured with the specific drug concentration for 24 hours at 37° C. in a 5% CO2 atmosphere. […] All plates are analyzed using a plate reader (Molecular Devices) using a filter set for O.D. 405. […]

leukemic stem cells [10] = test: Killing of leukemic stem cells (FIG. 6); type: cell-based
[11] = system: normal hematopoietic stem cells; test: Effect on normal hematopoietic stem cells (FIG. 6); type: cell-based

For O=[N+]([O-])c1cc(Cl)cc2c1nc(NCCO)c1ccccc12 [2-[(2-chloro-4-nitrophenanthridin-6-yl)amino]ethanol], which “viability of leukemic stem cells” value [1] is on record?
The value was “preferentially inhibited viability”.

And the bone marrow toxicity [2]?
The bone marrow toxicity was “less bone marrow toxicity”.

What about the “survival of mice transplanted with leukemic stem cells” value (from here on “survival of mice transplanted”) [3] of the same compound?
Its value is “increase survival”.

What about the “apoptosis induction (7AAD positive/GFP negative)” value (leukemic stem cells [4]) of the same compound?
The value was “induce apoptosis preferentially in leukemic stem cells”.

What about the mortality [5] of the same compound?
The mortality was “none of the mice died”.

And the “viability of normal murine hematopoietic stem cell line” value [6]?
The value was “but not the normal murine hematopoietic stem cell line”.

What about the “viability of human leukemic cell lines” value [7] of the same compound?
Its value is “preferentially inhibited viability of the leukemic cell lines”.

Which “viability of leukemic stem cells” value [1] does the source give for NNc1c(C(N)=O)c2c(N)ncnc2n1[C@@H]1O[C@H](CO)[C@@H](O)[C@@H]1O [4-amino-7-[(2R,3S,4S,5R)-3,4-dihydroxy-5-(hydroxymethyl)oxolan-2-yl]-6-hydrazinylpyrrolo[5,4-d]pyrimidine-5-carboxamide] here?
The value was “preferentially inhibited viability”.

And the “survival of mice transplanted” value [3]?
Its value is “increase survival”.

What about the “apoptosis induction (7AAD positive/GFP negative)” value (leukemic stem cells [4]) of the same compound?
The value was “induce apoptosis preferentially in leukemic stem cells”.

What about the mortality [5] of the same compound?
Its mortality is “none of the mice died”.

And the “viability of normal murine hematopoietic stem cell line” value [6]?
The value was “but not the normal murine hematopoietic stem cell line”.

And the bone marrow toxicity [8]?
The bone marrow toxicity was “less bone marrow toxicity”.

And the “viability of human leukemic cell lines” value [7]?
Its value is “preferentially inhibited viability of the leukemic cell lines”.

For O=C1NC(=S)NC(=O)C1=Cc1cccc2cc3ccccc3cc12 [5-(anthracen-1-ylmethylidene)-2-sulfanylidene-1,3diazinane-4,6-dione], which “viability of leukemic stem cells” value [1] is on record?
Its value is “preferentially inhibited viability”.

And the “survival of mice transplanted” value [3]?
Its value is “increase survival”.

What about the “apoptosis induction (7AAD positive/GFP negative)” value (leukemic stem cells [4]) of the same compound?
Its value is “induce apoptosis preferentially in leukemic stem cells”.

What about the mortality [5] of the same compound?
The mortality was “none of the mice died”.

What about the “viability of normal murine hematopoietic stem cell line” value [6] of the same compound?
Its value is “but not the normal murine hematopoietic stem cell line”.

And the bone marrow toxicity [8]?
The bone marrow toxicity was “less bone marrow toxicity”.

What about the “viability of primary unmanipulated fetal cord blood cultures” value [9] of the same compound?
Its value is “no decrease in viability”.

And the “viability of human leukemic cell lines” value [7]?
The value was “preferentially inhibited viability of the leukemic cell lines”.

Which “effect on leukemic stem cells” value (leukemic stem cells [10]) does the source give for CN(Cc1cnc2nc(N)nc(N)c2n1)c1ccc(C(=O)N[C@@H](CCC(=O)O)C(=O)O)cc1 [methotrexate] here?
The value was “killed”.

What about the “effect on normal hematopoietic stem cells” value [11] of the same compound?
Its value is “killed”.
